# Experimental data from patent US20250143933A1, “ENDOSCOPIC, PERCUTANEOUS AND OTHER METHODS FOR DISSOLUTION OF PANCREATIC NECROSIS” (The Johns Hopkins University, priority 2021, published 2025).
# Legend:
# [1] = cited from earlier work
# [2] = Ex vivo dissolution of solid WON debris by candidate debridement compounds; set-up: species or system human
# Method: To perform preliminary proof-of-concept testing, solid WON debris was collected from seven patients undergoing endoscopic necrosectomy. […] Several candidate compounds that might be suitable, alone or in combination, for WON debris dissolution were identified. The candidate debridement compounds were tested on ex vivo samples to assess their capacity for dissolving WON debris.
# [3] = previous attempts, literature; cited from earlier work
# [4] = concentrations higher than 30%; cited from earlier work
molecule,measurement,setting,value
"[O][Cl+][O-] [Chlorine dioxide, reference compound]",Effect compared to 5.8% NaOCl,[1]; chlorine dioxide 13.8%,shown to be similar
"OCl [NaOCl, Sodium hypochlorite]",Pulp dissolution,"[1]; 8.25% NaOCl, dental surgery studies (Cullen et al., 2015)",rapid pulp dissolution
same,Solvent properties in WON samples,"[2]; ex vivo, concentration of 5% (FIG. 4)",excellent solvent properties
same,Time to breakdown of human pancreas necrosis debris,"[2]; petri dish, dilute sodium hypochlorite 2.5% (FIG. 4)",within minutes
tissue plasminogen activator: previously tried chemical dissolution agent to aid endoscopic necrosectomy,Success as chemical dissolution agent to aid endoscopic necrosectomy,[3],minimal success
"CC(C)=O [acetone, reference compound]",Effect on WON debris (dissolution),"[2]; ex vivo samples from patients undergoing endoscopic necrosectomy, lipophilic solvent",minimal to no effect
"OO [Hydrogen peroxide, reference compound]",Toxicity (local damage),[4],shown to be toxic
same,Success as chemical dissolution agent to aid endoscopic necrosectomy,[3],minimal success
streptokinase: previously tried chemical dissolution agent to aid endoscopic necrosectomy,Success as chemical dissolution agent to aid endoscopic necrosectomy,[3],minimal success
